The structures appear in SMILES notation.

In this assay the test system is PfPanK. Briefly: [14C]pantothenate phosphorylation assay in P. falciparum lysates (Somogyi reagent). The assay is classed as biochemical. Conditions: PfPanK versus HsPanK3 selectivity. The method, then:
Parasite lysates were prepared from saponin-isolated mature trophozoite-stage parasites as described by Saliba et al. ([14]), with modifications. Briefly, a culture with predominantly trophozoite stage parasites was thoroughly mixed with saponin (0.05% [wt/vol] final concentration) and centrifuged at 2,000 × g for 8 min at 4°C. The pelleted parasites were then transferred to a 1.5 mL tube and washed three times (16,000 × g, 1 min each time) with cold malaria saline (125 mM NaCl, 5 mM KCl, 25 mM HEPES, 20 mM glucose, 1 mM MgCl2, pH 7.1). Subsequently, washed saponin-isolated parasites were suspended in 1 mL of 10 mM Tris/Cl, pH 7.4, followed by trituration (10 times) through a SafetyGlide injection needle (25-gauge). The lysates were then centrifuged at 16,000 × g for 30 min at 4°C, and the supernatant was transferred to a new tube. The concentration of the lysates was then determined using the Bradford reagent.
Phosphorylation of [^14C]pantothenate was determined using a combination of zinc sulphate (ZnSO4) and barium hydroxide (Ba(OH)2) (Somogyi reagent) as previously described ([78]). In the 125 min time course, each reaction (650 µL) contained a final concentration of 50 mM Tris-Cl (pH 7.4), 5 mM ATP, 5 mM MgCl2, 2 µM (0.1 µCi/mL) [^14C]pantothenate, and 60 µg of total parasite lysate. The compounds were added at their 10× antiplasmodial IC50 values or at various concentrations to generate dose–response curves. Mixtures were incubated at 37°C throughout the experiment, and reactions were initiated by the addition of the lysates. A reaction with identical components to the test reactions but lacking the parasite lysate was prepared to serve as a no-phosphorylation negative control, and a reaction with DMSO vehicle control (0.2% vol/vol) served as a positive control. At pre-determined time points, 50 µL of the reaction mixture was transferred in triplicate to wells of a 96-well filter plate with 0.2 µm hydrophilic polyvinylidene fluoride (PVDF) membrane filter (Corning), which had been pre-loaded with 50 µL of 150 mM Ba(OH)2. The reaction mixtures were thoroughly mixed with the Ba(OH)2 in the wells to precipitate the enzyme and terminate the phosphorylation reaction. After all reactions had been terminated, phosphorylated compounds in each well were precipitated by the addition of 50 µL of 150 mM ZnSO4 to generate the Somogyi reagent. The plate was then washed twice with deionized H2O and once with 95% (vol/vol) ethanol using a vacuum manifold to remove the non-phosphorylated [^14C]pantothenate and was subsequently dried overnight at 37°C in a non-humidified incubator. The following day, 30 µL of Microscint-O (PerkinElmer) was added to each well, and the plate was sealed on the top and bottom with TopSeal-A Plus sealing film (PerkinElmer). A Packard Microplate Scintillation and Luminescence Counter was used to measure the radioactivity in each well immediately after the plate had been sealed. To determine the total radioactivity in each phosphorylation assay, 50 µL of each reaction mixture was added to the wells of an OptiPlate-96 microplate (PerkinElmer) in triplicate and was then thoroughly mixed with 150 µL of Microscint-40 (PerkinElmer), and the radioactivity was measured in the same manner. Phosphorylation of [^14C]pantothenate, calculated as a percentage of the radioactivity measured in the test wells relative to the total radioactivity in the phosphorylation assay, was then plotted against the reaction time. Each data set was analyzed by linear regression, from which the phosphorylation rate of each reaction was then determined and expressed as a percentage of the phosphorylation rate of the DMSO-positive control reaction.

As for `CC(C)(CO)[C@@H](O)C(=O)NCc1csc(-c2ccccc2)n1` [Compound 2e], the “Fold by which IC50 at inhibiting PfPanK-mediated pantothenate phosphorylation is lower than Km observed for HsPanK3” value stood at 120 fold.

For the origin of these results see paper PMC12406685, “Thiazole substitution of a labile amide bond—a new option toward antiplasmodial pantothenamide-mimics” (Antimicrobial Agents and Chemotherapy, 2025).
